Measured values as given in US11384054B2, “Crystalline form of ivacaftor and a process for preparing the same” (ScinoPharm Taiwan, Ltd., priority 2020, dated 2022).
≈ marks a conversion by molar mass, not a printed value. Read-outs that look alike come from different tables or passages of the source.

Assay: Solubility test of ivacaftor in solvents and acetone/water mixtures at 25° C.
Format: physicochemical
Settings: organic solvent or mixture
Protocol: “Solvent” refers to a liquid substance capable of dissolving ivacaftor at about 50° C. to about 60° C. The term “anti-solvent” refers to a liquid substance which is not capable of dissolving ivacaftor at about 20° C. to about 30° C. More particularly, solvents and anti-solvents suitable for crystalline forms of ivacaftor are selected by solubility test, such as the Tables 1A, […], and 1C below, taking into consideration of advantages provided by the convenience and efficiency of process operation, the use of more environmentally friendly solvents, mild crystallization conditions, and others.

CC(C)(C)c1cc(C(C)(C)C)c(NC(=O)c2c[nH]c3ccccc3c2=O)cc1O [ivacaftor]
solubility (N,N-dimethylformamide, N,N-dimethylformamide, 25° C., read-out: Solubility): 109 mg/mL (≈ 277 mM) | solubility (acetone, Acetone, 25° C., read-out: Solubility): 27.9 mg/mL (≈ 71 mM) | solubility (acetone/water, 0% water in acetone, 25° C., read-out: Solubility in acetone/water): 27.9 mg/mL (≈ 71 mM) | solubility (acetone/water, 2% water in acetone, 25° C., read-out: Solubility in acetone/water): 27.9 mg/mL (≈ 71 mM) | solubility (acetone/water, 5% water in acetone, 25° C., read-out: Solubility in acetone/water): 41.4 mg/mL (≈ 106 mM) | solubility (acetone/water, 8% water in acetone, 25° C. (Table 1C), read-out: Solubility in acetone/water): 41.2 mg/mL (≈ 105 mM) | solubility (acetone/water, 10% water in acetone, 25° C., read-out: Solubility in acetone/water): 47.1 mg/mL (≈ 120 mM) | solubility (acetone/water, 15% water in acetone, 25° C., read-out: Solubility in acetone/water): 43.3 mg/mL (≈ 110 mM) | solubility (acetone/water, 30% water in acetone, 25° C., read-out: Solubility in acetone/water): 11 mg/mL (≈ 28 mM) | solubility (acetone/water, 50% water in acetone, 25° C., read-out: Solubility in acetone/water): 0.34 mg/mL (≈ 0.866 mM) | solubility (acetonitrile, Acetonitrile, 25° C., read-out: Solubility): 1.78 mg/mL (≈ 4.54 mM) | solubility (cyclohexane, Cyclohexane, 25° C., read-out: Solubility): 0.34 mg/mL (≈ 0.866 mM) | solubility (dimethyl sulfoxide, Dimethyl sulfoxide, 25° C., read-out: Solubility): 375 mg/mL (≈ 955 mM) | solubility (ethanol, Ethanol, 25° C., read-out: Solubility): 4.5 mg/mL (≈ 11.5 mM) | solubility (ethyl acetate, Ethyl acetate, 25° C., read-out: Solubility): 16.9 mg/mL (≈ 43.1 mM) | solubility (isopropanol, Isopropanol, 25° C., read-out: Solubility): 2.87 mg/mL (≈ 7.31 mM) | solubility (methanol, Methanol, 25° C., read-out: Solubility): 1.98 mg/mL (≈ 5.04 mM) | solubility (methyl ethyl ketone, Methyl ethyl ketone, 25° C., read-out: Solubility): 44.7 mg/mL (≈ 114 mM) | solubility (n-heptane, n-Heptane, 25° C., read-out: Solubility): 0.62 mg/mL (≈ 1.58 mM) | solubility (tetrahydrofuran, Tetrahydrofuran, 25° C., read-out: Solubility): 26.6 mg/mL (≈ 67.6 mM)
